Data published in patent US11161842B2, “Bifunctional molecules for degradation of EGFR and methods of use” (Dana-Farber Cancer Institute, Inc., priority 2016, dated 2021).

Experiments:
[1] = molecular target: T1, T790M/L858R transformed Ba/F3 cells (Homo sapiens, UniProt P00533, T790M/L858R, cells depend on it); experiment: Ba/F3 cell proliferation (MTS) assay, T790M/L858R; format: cell-based, murine; settings: for EC50: antiproliferative activity; for % control: compound at 1 μM, inhibition of growth as percent of control
T1 construct: The constructs were shuttled into the retroviral vector JP 1540 using the BD Creator™ System (BD Biosciences)
T1 sequence (P00533 whole entry T790M/L858R): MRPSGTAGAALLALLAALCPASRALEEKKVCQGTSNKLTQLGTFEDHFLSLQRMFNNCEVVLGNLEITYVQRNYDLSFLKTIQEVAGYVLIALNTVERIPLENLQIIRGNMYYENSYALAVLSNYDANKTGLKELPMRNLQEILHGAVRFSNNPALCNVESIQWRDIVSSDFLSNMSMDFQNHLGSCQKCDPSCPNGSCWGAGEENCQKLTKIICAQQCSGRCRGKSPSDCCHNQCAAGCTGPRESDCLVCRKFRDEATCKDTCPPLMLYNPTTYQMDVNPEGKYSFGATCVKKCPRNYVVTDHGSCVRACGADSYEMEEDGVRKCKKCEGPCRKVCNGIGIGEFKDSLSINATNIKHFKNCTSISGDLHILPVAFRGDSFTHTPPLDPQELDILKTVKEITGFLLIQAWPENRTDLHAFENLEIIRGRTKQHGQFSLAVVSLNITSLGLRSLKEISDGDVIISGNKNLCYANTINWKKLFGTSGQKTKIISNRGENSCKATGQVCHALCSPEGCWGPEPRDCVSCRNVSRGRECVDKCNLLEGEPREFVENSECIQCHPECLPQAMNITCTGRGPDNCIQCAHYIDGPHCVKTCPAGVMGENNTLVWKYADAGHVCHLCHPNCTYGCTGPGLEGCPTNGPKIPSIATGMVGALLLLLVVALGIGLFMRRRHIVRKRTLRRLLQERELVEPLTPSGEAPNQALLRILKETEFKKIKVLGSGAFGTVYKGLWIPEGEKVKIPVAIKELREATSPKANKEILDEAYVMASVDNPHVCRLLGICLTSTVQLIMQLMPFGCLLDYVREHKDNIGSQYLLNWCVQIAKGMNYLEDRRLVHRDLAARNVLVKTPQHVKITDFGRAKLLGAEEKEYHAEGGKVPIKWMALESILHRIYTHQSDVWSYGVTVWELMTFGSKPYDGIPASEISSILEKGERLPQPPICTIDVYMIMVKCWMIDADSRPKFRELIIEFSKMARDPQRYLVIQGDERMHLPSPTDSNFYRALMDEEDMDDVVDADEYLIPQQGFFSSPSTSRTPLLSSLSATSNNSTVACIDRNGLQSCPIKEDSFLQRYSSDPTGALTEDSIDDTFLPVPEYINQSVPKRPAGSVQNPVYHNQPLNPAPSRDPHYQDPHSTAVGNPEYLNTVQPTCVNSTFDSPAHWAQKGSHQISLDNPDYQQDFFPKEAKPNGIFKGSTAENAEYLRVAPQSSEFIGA
From the text: The EGFR mutant L858R, Del E746_A750, L858R/T790M, DelE746_A750/T790M, L858R/T790M/C797S and Del/T790M/C797S Ba/F3 cells have been previously described (Zhou, W., Ercan, D., Chen, L., Yun, C. H., Li, D., Capelletti, M., Cortot, A. B., Chirieac, L., Iacob, R. E., Padera, R., et al. “Novel mutant-selective EGFR kinase inhibitors against EGFR T790M,” Nature 462, (2009), 1070-1074). All cell lines were maintained in RPMI 1640 (Cellgro; Mediatech Inc., Herndon, Calif.) supplemented with 10% FBS 100 units/mL penicillin, 100 units/mL streptomycin, and 2 mM glutamine. L858R cells were maintained in ACL-4 media (Invitrogen, Carlsbad, Calif.) supplemented with 5% FBS, 100 units/mL penicillin, 100 units/mL streptomycin, and 2 mM glutamine. The EGFR I941R mutation was introduced via site directed mutagenesis using the Quick Change Site-Directed Mutagenesis kit (Stratagene; La Jolla, Calif.) according to the manufacturer's instructions. All constructs were confirmed by DNA sequencing. The constructs were shuttled into the retroviral vector JP 1540 using the BD Creator™ System (BD Biosciences). Ba/F3 cells were infected with retrovirus and according to standard protocols, as described previously (Zhou et al, Nature 2009). Stable clones were obtained by selection in puromycin (2 μg/ml).
Growth and inhibition of growth was assessed by MTS assay and was performed according to previously established methods (Zhou et al., Nature 2009). The MTS assay is a colorimetric method for determining the number of viable cells that is based on the bioreduction of MTS by cells to a formazan product that is soluble in cell culture medium and can be detected spectrophotometrically. Ba/F3 cells of different EGFR genotypes were exposed to treatment for 72 hours and the number of cells used per experiment determined empirically and has been previously established (Zhou et al., Nature 2009). All experimental points were set up in six wells and all experiments were repeated at least three times. […] The curves were fitted using a non-linear regression model with a sigmoidal dose response.
Compounds of Table 1 were tested at a concentration of 1 μM against T790M/L858R transformed Ba/F3 cells. The assay, as described in Example 42, measured inhibition of growth as a percent of the inhibitory activity of the control. In Table 1, A is 0<% control <25, B is 25<% control <50, C is 50<% control <75, and D is 75<% control.
Compounds of Table 2 were tested in a T790M/L858R transformed Ba/F3 cell line as described in Example 42 and the EC50 values were calculated. In Table 2, A is EC50<500 nM, B is 500 nM<EC50<1000 nM, C is 1000 nM<EC50<5000 nM, and D is 5000 nM<EC50.

[2] = molecular target: T2, T790M/L858R/C797S transformed Ba/F3 cells (Homo sapiens, UniProt P00533, T790M/C797S/L858R, cells depend on it); experiment: Ba/F3 cell proliferation (MTS) assay, T790M/L858R/C797S; format: cell-based, murine; settings: antiproliferative activity
T2 construct: The constructs were shuttled into the retroviral vector JP 1540 using the BD Creator™ System (BD Biosciences)
T2 sequence (P00533 whole entry T790M/C797S/L858R): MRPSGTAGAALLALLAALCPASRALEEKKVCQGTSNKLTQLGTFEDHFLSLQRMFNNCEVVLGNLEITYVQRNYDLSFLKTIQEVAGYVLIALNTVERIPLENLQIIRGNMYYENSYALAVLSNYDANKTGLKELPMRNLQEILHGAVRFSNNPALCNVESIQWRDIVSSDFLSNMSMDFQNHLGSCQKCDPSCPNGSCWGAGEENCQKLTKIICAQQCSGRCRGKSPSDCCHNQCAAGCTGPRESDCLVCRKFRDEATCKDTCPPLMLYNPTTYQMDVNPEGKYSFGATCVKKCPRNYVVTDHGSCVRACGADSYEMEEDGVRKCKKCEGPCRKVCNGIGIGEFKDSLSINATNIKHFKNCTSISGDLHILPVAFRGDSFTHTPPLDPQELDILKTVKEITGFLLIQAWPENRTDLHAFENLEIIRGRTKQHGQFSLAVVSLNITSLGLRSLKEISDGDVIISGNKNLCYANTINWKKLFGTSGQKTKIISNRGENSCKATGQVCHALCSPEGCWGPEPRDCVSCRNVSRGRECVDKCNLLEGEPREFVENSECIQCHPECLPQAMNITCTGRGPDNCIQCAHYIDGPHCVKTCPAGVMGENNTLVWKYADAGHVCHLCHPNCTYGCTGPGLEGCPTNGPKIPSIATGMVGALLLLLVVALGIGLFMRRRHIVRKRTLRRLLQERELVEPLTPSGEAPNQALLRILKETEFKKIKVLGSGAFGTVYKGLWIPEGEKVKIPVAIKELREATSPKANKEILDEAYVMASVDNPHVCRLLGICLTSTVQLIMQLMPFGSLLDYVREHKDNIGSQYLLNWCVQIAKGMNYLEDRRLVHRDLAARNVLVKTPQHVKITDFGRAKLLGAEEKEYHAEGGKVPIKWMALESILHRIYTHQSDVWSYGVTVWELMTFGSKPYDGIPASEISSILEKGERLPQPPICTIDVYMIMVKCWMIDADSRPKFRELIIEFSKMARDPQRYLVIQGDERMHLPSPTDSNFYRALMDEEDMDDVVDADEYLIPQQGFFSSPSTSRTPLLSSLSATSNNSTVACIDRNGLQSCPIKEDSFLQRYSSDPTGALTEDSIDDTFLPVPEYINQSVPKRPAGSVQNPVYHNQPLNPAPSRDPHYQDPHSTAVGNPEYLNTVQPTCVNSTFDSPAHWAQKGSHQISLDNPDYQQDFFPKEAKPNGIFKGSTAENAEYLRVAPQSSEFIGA

## O=C1CCC(N2C(=O)c3cccc(NCCOCCOCCOCCC(=O)N4CCN(c5ccc(-c6ccc7c(c6)C(=O)N(C(C(=O)Nc6nccs6)c6ccccc6)C7)cc5)CC4)c3C2=O)C(=O)N1 (centres unmarked) [Compound I-1, 2-(6-(4-(4-(3-(2-(2-(2-((2-(2,6-Dioxopiperidin-3-yl)-1,3-dioxoisoindolin-4-yl)amino)ethoxy)ethoxy)ethoxy)propanoyl)piperazin-1-yl)phenyl)-1-oxoisoindolin-2-yl)-2-phenyl-N-(thiazol-2-yl)acetamide]
[1]
  EC50: < 500 nM
  % control: A (A is 0<% control <25)
[2]
  EC50: 0.5 to 1 µM

## O=C1CCC(N2C(=O)c3cccc(NCCOCCOCCC(=O)N4CCN(c5ccc(-c6ccc7c(c6)C(=O)N(C(C(=O)Nc6nccs6)c6ccccc6)C7)cc5)CC4)c3C2=O)C(=O)N1 (centres unmarked) [Compound I-7, 2-(6-(4-(4-(3-(2-(2-((2-(2,6-Dioxopiperidin-3-yl)-1,3-dioxoisoindolin-4-yl)amino)ethoxy)ethoxy)propanoyl)piperazin-1-yl)phenyl)-1-oxoisoindolin-2-yl)-2-phenyl-N-(thiazol-2-yl)acetamide]
[1]
  % control: B (B is 25<% control <50)

## O=C1CCC(N2C(=O)c3cccc(NCCOCCC(=O)N4CCN(c5ccc(-c6ccc7c(c6)C(=O)N(C(C(=O)Nc6nccs6)c6ccccc6)C7)cc5)CC4)c3C2=O)C(=O)N1 (centres unmarked) [Compound I-8, 2-(6-(4-(4-(3-(2-((2-(2,6-Dioxopiperidin-3-yl)-1,3-dioxoisoindolin-4-yl)amino)ethoxy)propanoyl)piperazin-1-yl)phenyl)-1-oxoisoindolin-2-yl)-2-phenyl-N-(thiazol-2-yl)acetamide]
[1]
  % control: D (D is 75<% control)

## O=C1CCC(N2C(=O)c3cccc(NCCOCCOCCOCCN4CCN(c5ccc(-c6ccc7c(c6)C(=O)N(C(C(=O)Nc6nccs6)c6cc(F)ccc6O)C7)cc5)CC4)c3C2=O)C(=O)N1 (centres unmarked) [Compound I-10, 2-(6-(4-(4-(2-(2-(2-(2-((2-(2,6-Dioxopiperidin-3-yl)-1,3-dioxoisoindolin-4-yl)amino)ethoxy)ethoxy)ethoxy)ethyl)piperazin-1-yl)phenyl)-1-oxoisoindolin-2-yl)-2-(5-fluoro-2-hydroxyphenyl)-N-(thiazol-2-yl)acetamide]
[1]
  EC50: 1000 to 5000 nM
  % control: B (B is 25<% control <50)
[2]
  EC50: > 5 µM

## O=C1CCC(N2C(=O)c3cccc(NCCCCCCN4CCN(c5ccc(-c6ccc7c(c6)C(=O)N(C(C(=O)Nc6nccs6)c6cc(F)ccc6O)C7)cc5)CC4)c3C2=O)C(=O)N1 (centres unmarked) [Compound I-11, 2-(6-(4-(4-(6-((2-(2,6-Dioxopiperidin-3-yl)-1,3-dioxoisoindolin-4-yl)amino)hexyl)piperazin-1-yl)phenyl)-1-oxoisoindolin-2-yl)-2-(5-fluoro-2-hydroxyphenyl)-N-(thiazol-2-yl)acetamide]
[1]
  EC50: 1000 to 5000 nM
  % control: B (B is 25<% control <50)
[2]
  EC50: > 5 µM

## O=C1CCC(N2C(=O)c3cccc(NCCCCCCCCN4CCN(c5ccc(-c6ccc7c(c6)C(=O)N(C(C(=O)Nc6nccs6)c6cc(F)ccc6O)C7)cc5)CC4)c3C2=O)C(=O)N1 (centres unmarked) [Compound I-12, 2-(6-(4-(4-(8-((2-(2,6-Dioxopiperidin-3-yl)-1,3-dioxoisoindolin-4-yl)amino)octyl)piperazin-1-yl)phenyl)-1-oxoisoindolin-2-yl)-2-(5-fluoro-2-hydroxyphenyl)-N-(thiazol-2-yl)acetamide]
[1]
  EC50: 1000 to 5000 nM
  % control: B (B is 25<% control <50)
[2]
  EC50: > 5 µM

## O=C1CCC(N2C(=O)c3cccc(NCCCCCCN4CCN(c5ccc(-c6ccc7c(c6)C(=O)N(C(C(=O)Nc6nccs6)c6ccccc6)C7)cc5)CC4)c3C2=O)C(=O)N1 (centres unmarked) [Compound I-17, 2-(6-(4-(4-(6-((2-(2,6-Dioxopiperidin-3-yl)-1,3-dioxoisoindolin-4-yl)amino)hexyl)piperazin-1-yl)phenyl)-oxoisoindolin-2-yl)2-phenyl-N-(thiazol-2-yl)acetamide]
[1]
  % control: C (C is 50<% control <75)

## O=C1CCC(N2C(=O)c3cccc(NCCCCCCCCN4CCN(c5ccc(-c6ccc7c(c6)C(=O)N(C(C(=O)Nc6nccs6)c6ccccc6)C7)cc5)CC4)c3C2=O)C(=O)N1 (centres unmarked) [Compound I-19, 2-(6-(4-(4-(8-((2-(2,6-Dioxopiperidin-3-yl)-1,3-dioxoisoindolin-4-yl)amino)octyl)piperazin-1-yl)phenyl)-1-oxoisoindolin-2-yl)-2-phenyl-N-(thiazol-2-yl)acetamide]
[1]
  % control: D (D is 75<% control)

## O=C1CCC(N2C(=O)c3cccc(NCCOCCOCCN4CCN(c5ccc(-c6ccc7c(c6)C(=O)N(C(C(=O)Nc6nccs6)c6ccccc6)C7)cc5)CC4)c3C2=O)C(=O)N1 (centres unmarked) [Compound I-21, 2-(6-(4-(4-(2-(2-(2-((2-(2,6-Dioxopiperidin-3-yl)-1,3-dioxoisoindolin-4-yl)amino)ethoxy)ethoxy)ethyl)piperazin-1-yl)phenyl)-1-oxoisoindolin-2-yl)-2-phenyl-N-(thiazol-2-yl)acetamide]
[1]
  % control: C (C is 50<% control <75)

## Cc1ncsc1-c1ccc(CNC(=O)[C@@H]2C[C@@H](O)CN2C(=O)[C@@H](NC(=O)CCOCCOCCOCCC(=O)N2CCN(c3ccc(-c4ccc5c(c4)C(=O)N(C(C(=O)Nc4nccs4)c4ccccc4)C5)cc3)CC2)C(C)(C)C)cc1 (stereo partly drawn) [Compound I-25, (2S,4R)-1-((2S)-2-(tert-Butyl)-4,16-dioxo-16-(4-(4-(3-oxo-2-(2-oxo-1-phenyl-2-(thiazol-2-ylamino)ethyl)isoindolin-5-yl)phenyl)piperazin-1-yl)-7,10,13-trioxa-3-azahexadecanoyl)-4-hydroxy-N-(4-(4-methylthiazol-5-yl)benzyl)pyrrolidine-2-carboxamide]
[1]
  % control: D (D is 75<% control)

## Cc1ncsc1-c1ccc(CNC(=O)[C@@H]2C[C@@H](O)CN2C(=O)[C@@H](NC(=O)CCOCCOCCOCCC(=O)N2CCN(c3ccc(-c4ccc5c(c4)C(=O)N(C(C(=O)Nc4nccs4)c4cc(F)ccc4O)C5)cc3)CC2)C(C)(C)C)cc1 (stereo partly drawn) [Compound I-26, (2S,4R)-1-((2S)-2-(tert-Butyl)-16-(4-(4-(2-(1-(5-fluoro-2-hydroxyphenyl)-2-oxo-2-(thiazol-2-ylamino)ethyl)-3-oxoisoindolin-5-yl)phenyl)piperazin-1-yl)-4,16-dioxo-7,10,13-trioxa-3-azahexadecanoyl)-4-hydroxy-N-(4-(4-methylthiazol-5-yl)benzyl)pyrrolidine-2-carboxamide]
[1]
  % control: D (D is 75<% control)

## CC1(N2C(=O)c3cccc(NCCOCCOCCOCCC(=O)N4CCN(c5ccc(-c6ccc7c(c6)C(=O)N(C(C(=O)Nc6nccs6)c6ccccc6)C7)cc5)CC4)c3C2=O)CCC(=O)NC1=O (centres unmarked) [Compound I-27, 2-(6-(4-(4-(3-(2-(2-(2-((2-(3-Methyl-2,6-dioxopiperidin-3-yl)-1,3-dioxoisoindolin-4-yl)amino)ethoxy)ethoxy)ethoxy)propanoyl)piperazin-1-yl)phenyl)-1-oxoisoindolin-2-yl)-2-phenyl-N-(thiazol-2-yl)acetamide]
[1]
  % control: D (D is 75<% control)

## O=C1CCC(N2C(=O)c3cccc(N4CCN(c5ccc(-c6ccc7c(c6)C(=O)N(C(C(=O)Nc6nccs6)c6ccccc6)C7)cc5)CC4)c3C2=O)C(=O)N1 (centres unmarked) [Compound I-35]
[1]
  % control: D (D is 75<% control)

## O=C(Nc1nccs1)C(c1ccccc1)N1Cc2ccc(-c3ccc(N4CCNCC4)cc3)cc2C1=O (centres unmarked) [TL Compd 1, 2-(1-oxo-6-(4-(piperazin-1-yl)phenyl)isoindolin-2-yl)-2-phenyl-N-(thiazol-2-yl)acetamide]
[1]
  % control: B (B is 25<% control <50)

## O=C(Nc1nccs1)C(c1cc(F)ccc1O)N1Cc2ccc(-c3ccc(N4CCNCC4)cc3)cc2C1=O (centres unmarked) [TL Compd 2]
[1]
  % control: D (D is 75<% control)
